From patent publication US7901713B2, “Inhibition of COX-2 and/or 5-LOX activity by fractions isolated or derived from hops” (Metaproteomics, LLC, priority 2001, dated 2011)

Assays:
[1] = clinical trials; cited from earlier work
[2] = tested on: Jurkat cells; assay: Antioxidant activity, DCFH-DA oxidative stress model (H2O2 + LPS) in Jurkat cells; assay type: cell-based; settings: Homo sapiens, 1000 μM H2O2 + 1 μg/mL LPS, highest concentration tested 50 μg/mL, parenthetic 95% confidence limits
Protocol: Chemicals and reagents—Bacterial lipopolysaccharide (LPS; B E. coli 055:B5) was from Sigma (St. […] (Eugene, Oreg.); DCFH-DA was dissolved in dimethyl sulfoxide (DMSO) as a stock solution and kept frozen at −20° C. […] Positive control compounds included caffeic acid and Trolox obtained from Sigma (St. Louis, Mo.) and were of the highest purity commercially available. […] Unless otherwise noted, all standard reagents were obtained from Sigma and were the purest commercially available. […] Excess DCFH-DA was removed by centrifuging the cells for 10 minutes and resuspending them in the original growth medium. Cells were plated in microtiter wells at a concentration of approximately 10^6 cells per well. […] Fluorescence for each well was captured, digitized and stored on a computer using Cytofluor (Version 4.0). Measurements of fluorescence were made every ten minutes for 60 minutes. The change in DCF fluorescence is presented relative to the LPS-stimulated Jurkat cells alone; […] […] Antioxidant activity of the test materials—Oxidative stress was measured in cells using DCFH-DA in a microtiter plate assay as previously described [Wang, H. and Joseph, J. A. (1999) Quantifying cellular oxidative stress by dichlorofluorescein assay using microplate reader. […] Thus, the assay can be used to quantify overall oxidative stress in cells. […] Cm is determined from the x-intercept of the median-effect plot. […]

[3] = tested on: RAW 264.7 cells; assay: Antioxidant activity, DCFH-DA oxidative stress model (H2O2 + LPS) in RAW 264.7 cells; assay type: cell-based, murine; settings: Mus musculus, RAW264.7; 1000 μM H2O2 + 1 μg/mL LPS; highest concentration tested 50 μg/mL; parenthetic 95% confidence limits

Row | SMILES | reduction of primary and secondary incidence of myocardial infarction and other CVDs [1] | IC50 [2] [µg/mL] | IC50 [3] [µg/mL]
1 | CC(=O)Oc1ccccc1C(=O)O [Aspirin, acetylsalicylic acid] | approximately 25% |  | 
2 | O=C(O)/C=C/c1ccc(O)c(O)c1 [Caffeic acid, caffeic acid] |  | 3.2 | 3.3
3 | Cc1c(C)c2c(c(C)c1O)CCC(C)(C(=O)O)O2 (stereo not shown) [Trolox] |  | 5.4 | 
